Experimental data from ChEMBL document CHEMBL3045889 (Pest Manag Sci, 2012).

Test system: Fusarium graminearum
Experiment: Antifungal activity against Fusarium graminearum JT04 assessed as inhibition of mycelial growth
Format: functional, organism-based

COC(=O)Nc1nc2ccccc2[nH]1 [CARBENDAZIM]
MIC: > 200 µg/mL
